The values below come from US20030092613A1, “Alpha7 nicotinic receptor peptides as ligands for beta amyloid peptides” (priority 2000, published 2003).

Like-named read-outs stand apart in the source and are kept apart here.

In data set [1] the test system is Biotin-huma7-5. Details: species or system human. The settings on record: read-out: IC50, 125I-α-BTX binding to Biotin-huma7-5.
Data set [2] addresses huma7 peptide / β-amyloid1-40 (Homo sapiens, UniProt P36544). The data set is described as follows: Huma7 binding assay: 125I-β-amyloid1-40 binding to immobilized huma7 peptide.
Data set [3] deals with Biotin-huma7-5. Briefly: Fluo-β-amyloid1-42 binding assay to Biotin-huma7-5. Details: species or system human.
In data set [4] the target is T1, α7nAChR (Homo sapiens, UniProt P36544).
T1 construct: expressed in transfected cells; host or cells: SK-N-MC (ATCC HTB-10), membranes
T1 sequence (P36544 23-502): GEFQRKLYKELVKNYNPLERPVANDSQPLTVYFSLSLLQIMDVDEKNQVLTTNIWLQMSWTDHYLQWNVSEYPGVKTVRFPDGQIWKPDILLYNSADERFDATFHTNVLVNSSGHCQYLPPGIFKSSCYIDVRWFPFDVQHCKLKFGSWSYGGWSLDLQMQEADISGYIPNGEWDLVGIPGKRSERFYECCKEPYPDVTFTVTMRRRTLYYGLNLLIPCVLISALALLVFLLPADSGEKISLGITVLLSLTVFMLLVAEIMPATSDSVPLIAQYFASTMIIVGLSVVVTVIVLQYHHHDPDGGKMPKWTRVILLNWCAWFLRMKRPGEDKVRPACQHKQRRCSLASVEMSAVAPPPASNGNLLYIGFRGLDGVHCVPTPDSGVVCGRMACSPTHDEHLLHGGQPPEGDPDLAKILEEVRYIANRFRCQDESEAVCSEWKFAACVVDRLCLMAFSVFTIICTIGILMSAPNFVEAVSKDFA
Briefly: α7nAChR binding assay: 125I-β-amyloid1-40 binding to α7SK-N-MC membranes (SPA). Conditions: inhibition of 125I-β-amyloid1-40 (20 pM) binding to α7SK-N-MC membranes. On the procedure: α7nAChR (nicotinic acetylcholine receptor) binding assay: Membranes from recombinant SK-N-MC cells (ATCC#HTB-10) overexpressing α7nAChR (α7SK-N-MC) were prepared according to standard procedures (Wang et al, J. Biol Chem. 275, 5626-5632, 2000) except that the membranes were thoroughly washed. For each assay, membranes (20 μg) were precoupled to wheat germ agglutinin yittrium SPA beads (250 μg, Amersham) in 50 mM HEPES (pH 7.5) containing 0.01% BSA, 2 mM Mg^2+, 2 mM Ca^2+ and protease inhibitors (Boehringer Mannheim, Germany). […] At the end of the incubation (30 min), bound radioactivity was measured in a TopCount (Packard, Meriden, Conn.). Data were analyzed using Graphpad Prism software (Graphpad Software Incorporated).

Data set [5] concerns guinea pig hippocampal synaptosomes. Briefly: ACh release from guinea pig hippocampal synaptosomes (β-amyloid inhibition of K+-evoked release). Conditions: attenuation of β-amyloid's inhibition on potassium-evoked ACh release. In kind it is cell-based. As to the method:
ACh release from guinea pig hippocampal synaptosomes: Synaptosomes (P2 fraction) were prepared from guinea pig hippocampus as described previously and re-suspended in a Krebs-Ringer solution containing 0.1 μM [methyl-^3H]choline chloride (NEN, Boston, Mass.) and incubated at 37° C. for 30 min. Unincorporated choline was removed by washing and the synaptosomes were resuspended in Krebs-Ringer solution to 10 mg/mL. ACh release from synaptosomes was measured using the parallel superfusion chambers (Hugo Sachs Elektronik, March-Hugstetten, Germany) according to that described earlier (Wang, H. -Y. et al Neuropeptides 1999; 33, 197-205). […]
The tissues were treated with peptides and ACh release was evoked by superfusing with 65 mM K^+-Krebs-Ringer (made by equimolar replacement of NaCl with KCl) for 30 seconds. […] The amount of ^3H in the superfusate samples was measured by liquid scintillation spectrometry.
Tritiurn efflux into the superfusate was calculated as the fraction of ^3H content in the synaptosomes at the onset of the respective collection period. […]
Data are expressed as the mean fractional ^3H release±S.E.M. Statistical differences between treatments were tested by Student's t test, two-tailed or the two-factor ANOVA as appropriate. Individual differences in the dose-response curve were evaluated by the Newman-Keuls multiple comparison test.

The mark [6] stands for this setting: first phase, read-out: Calculated EC50 for biphasic response, EC50 - 1.
Where [7] appears, read: second phase, read-out: Calculated EC50 for biphasic response, EC50 - 2.

Chain of huma7 peptide / β-amyloid1-40 (P36544 193-224): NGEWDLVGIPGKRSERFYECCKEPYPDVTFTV

For `CC(C)C[C@H](NC(=O)[C@H](CCCCN)NC(=O)[C@H](CCC(N)=O)NC(=O)[C@H](Cc1c[nH]cn1)NC(=O)[C@H](Cc1c[nH]cn1)NC(=O)[C@@H](N)C(C)C)C(=O)N[C@H](C(=O)N[C@@H](Cc1ccccc1)C(=O)N[C@@H](Cc1ccccc1)C(=O)N[C@@H](C)C(=O)N[C@@H](CCC(=O)O)C(=O)N[C@@H](CC(=O)O)C(=O)N[C@H](C(=O)NCC(=O)N[C@@H](CO)C(=O)N[C@@H](CC(N)=O)C(=O)N[C@@H](CCCCN)C(=O)O)C(C)C)C(C)C` [Aβ12-28], the IC50 in data set [1] was found to be 400 nM.
With α-bungarotoxin [α-BTX], in data set [2], the “inhibition of 125I-β-amyloid1-40 binding to immobilized huma7” value was “can be inhibited”. In addition, the “% Inh @ 100 μM, Fluo-β-amyloid1-42 binding to Biotin-huma7-5” value in data set [3] was determined as 100%. Also, the IC50 in data set [1] is 100 nM.
As for `CCCN(CCC)C1Cc2c(O)ccc(O)c2CC1C` (centres unmarked) [Inhibitor A], the values for the EC50 in data set [4] (setting [6]) and in data set [4] (setting [7]) were 0.133 nM and 34700 nM, respectively. In addition, the “inhibition of 125I-β-amyloid1-40 binding to immobilized huma7” value in data set [2] (10 μM inhibitors, FIG. 2) is “can be inhibited”.
With `N[C@@H](Cc1ccc(O)cc1)C(=O)N1CCC[C@H]1C(=O)N[C@@H](Cc1c[nH]c2ccccc12)C(=O)N[C@@H](Cc1ccccc1)C(=O)O` [YPWF peptide, YPWF], the values for the EC50 in data set [4] (setting [6]) and in data set [4] (setting [7]) were 0.00351 nM and 20.3 nM, respectively.
For the compound Aβ42: β-amyloid peptide1-42, the “% Inh @ 100 μM, Fluo-β-amyloid1-42 binding to Biotin-huma7-5” value in data set [3] (100 μM, 100 nM Fluo-β-amyloid1-42, 1 hr at 25° C.) came to 85%.
28 (ECCK) [compound 28]: the “ACh rel % Inh @ 100 μM” value in data set [5] was determined as 87%.

For orientation: IC50 means the concentration needed to halve the response being measured. What is called EC50 is the concentration that produces a half-maximal response.
